# Experimental data from paper PMC4282596 (Psychopharmacology, 2014).
# Target: T1, 5-HT2C receptor (Homo sapiens, UniProt P28335)
# T1 sequence (P28335 33-458): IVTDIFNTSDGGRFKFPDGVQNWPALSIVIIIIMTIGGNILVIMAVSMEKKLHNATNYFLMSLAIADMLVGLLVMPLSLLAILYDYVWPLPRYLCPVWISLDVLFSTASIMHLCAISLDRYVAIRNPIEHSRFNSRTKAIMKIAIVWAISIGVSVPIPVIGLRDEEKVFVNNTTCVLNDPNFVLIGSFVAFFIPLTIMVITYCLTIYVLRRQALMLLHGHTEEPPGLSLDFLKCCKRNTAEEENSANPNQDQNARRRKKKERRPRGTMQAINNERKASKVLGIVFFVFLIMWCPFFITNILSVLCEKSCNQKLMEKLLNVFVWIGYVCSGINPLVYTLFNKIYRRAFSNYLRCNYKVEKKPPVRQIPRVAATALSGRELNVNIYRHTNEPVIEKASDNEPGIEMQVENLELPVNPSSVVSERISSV
# Test: […]DOI radioligand competition binding on HEK-h5HT2C cell homogenate
compound,measurement,value
CC(C)N(CCc1c[nH]c2ccccc12)C(C)C [DiPT],Ki,290 ± 110 nM
